One assay has as its target T1, GltPh-R397C (Pyrococcus horikoshii, UniProt O59010, R397C).
T1 construct: hexa-His (N, cleaved yes); made in house; host or cells: Escherichia coli Top10 (pBAD)
The assay can be described thus: biochemical. The following applies: for Transport of radiolabelled substrate into proteoliposomes (in words): 100 nM L-[3H]aspartate, 1 µM L-[3H]glutamine, 10 µM 35S-cysteine ± 1 mM DTT, Na+ gradient. The method, then: (§1) Mutant and wild-type GltPh with an amino-terminal hexa-His tag were expressed in Escherichia coli Top10 cells (Invitrogen), which were grown in Luria broth medium at 37 °C. Ampicillin was added to a final concentration of 100 μg per ml. To induce expression of GltPh, 0.1% L-arabinose was added when cells reached an optical density of 0.6 at 660 nm, and cells were harvested 4 h post induction. Membranes were isolated, and then solubilised with n-dodecyl-β-D-maltopyranoside (C12M, Anatrace). Histidine containing proteins were purified using Ni^2+−nitrilotriacetic acid resin (Qiagen). The histidine tag was subsequently removed from GltPh by digestion with thrombin (10 U per mg protein) and the protein further purified on a Superdex 200 size exclusion column, where the detergent was exchanged to n-decyl-β-D-maltopyranoside (C10M, Anatrace).
(§2) Pure protein was reconstituted into liposomes composed of 75% E. coli Polar Lipid Extract and 25% 1-palmitoyl-2-oleoyl-sn-glycero-3 ^−phopshocholine (Avanti Polar Lipids). Lipids were mixed, dried under nitrogen and resuspended in internal buffer (100 mM KCl, 20 mM HEPES-Tris pH 7.5) using brief sonication (Laboratory Supplies Co.). The lipid suspension was frozen in liquid nitrogen and thawed at room temperature several times. Liposomes were formed by extrusion through 400 nm polycarbonate membranes (Avanti Polar Lipids) and were treated with Triton X-100 at a 0.5:1 (w/w) detergent to lipid ratio prior to the addition of protein at 0.25 μg protein per mg lipid. The protein/lipid mixture was left at room temperature for 30 min before detergent was removed using SM2 Biobeads (BioRad). The mixture was then incubated with gentle agitation, with four consecutive batches of Biobeads (80 mg per ml). Proteoliposomes were concentrated by centrifugation at 150,000 g for 30 min, resuspended at 100 mg lipid per ml and either used immediately or flash-frozen in liquid nitrogen and stored at −80 °C.
(§3) Mutant and wild-type GltPh-mediated transport of radiolabelled substrate was assayed by diluting proteoliposomes (100 mg lipid per ml) 133-fold into uptake buffer (100 mM NaCl, 20 mM HEPES-Tris pH 7.5, 1 μM valinomycin, 100 nM–1 µM L-[^3H]substrate) pre-warmed to 30 °C. At each time point, a 200 µl aliquot was removed and diluted 10-fold into ice-cold quench buffer (100 mM LiCl, 20 mM HEPES-Tris pH 7.5), followed by immediate filtration over nitrocellulose filters (0.22 μm pore size, Millipore). The filters were washed with ice-cold quench buffer and assayed for radioactivity using a Trilux beta counter (PerkinElmer). To establish substrate concentration–response curves, extraliposomal L-[^3H]substrate was varied between 500 nM and 100 µM, maintaining NaCl concentrations at 300 mM. For inhibitor concentration–response curves, for wild-type GltPh 100 nM L-[^3H]aspartate, and for mutant GltPh 1 µM L-[^3H]serine, was co-applied with varying inhibitor concentrations. Background levels of uptake were measured by diluting proteoliposomes into internal buffer (100 mM KCl, 20 mM HEPES-Tris pH 7.5) containing 1 µM of valinomycin and the indicated concentrations of L-[^3H]substrate.
Supplementary Figure 6. GltPh‐R397C, ASCT1 and ASCT2 are functional cysteine transporters. (a) Purified GltPh‐R397C was reconstituted into liposomes and 10µM 35S‐cysteine transport was measured over 10 minutes alone or in the presence of 1 mM dithiothreitol (DTT). Background levels of uptake were measured by diluting proteoliposomes into internal buffer (100 mM KCl, 20 mM HEPES‐Tris pH 7.5) containing 1 µM of valinomycin and the 10µM 35S‐cysteine. […]
(c) Neutral amino acid exchange in GltPh‐R397C. Counterflow experiments in which Na+ and amino acid loaded liposomes were used to detect the transport of a range of unlabelled neutral amino acids by exchanging with external 3H‐serine. Counterflow assays were performed using liposomes containing 200mM NaCl, 20 mM HEPES/Tris pH 7.5, and 1 mM of unlabelled amino acid as indicated. […]

The target in another assay is T2, GltPh-G396S/R397C (Pyrococcus horikoshii, UniProt O59010, G396S/R397C).
T2 construct: hexa-His (N, cleaved yes); made in house; host or cells: Escherichia coli Top10 (pBAD)
The assay can be described thus: biochemical. Type of assay: biochemical. The method, then:
as §1, §2, §3

T2 sequence (O59010 whole entry G396S/R397C): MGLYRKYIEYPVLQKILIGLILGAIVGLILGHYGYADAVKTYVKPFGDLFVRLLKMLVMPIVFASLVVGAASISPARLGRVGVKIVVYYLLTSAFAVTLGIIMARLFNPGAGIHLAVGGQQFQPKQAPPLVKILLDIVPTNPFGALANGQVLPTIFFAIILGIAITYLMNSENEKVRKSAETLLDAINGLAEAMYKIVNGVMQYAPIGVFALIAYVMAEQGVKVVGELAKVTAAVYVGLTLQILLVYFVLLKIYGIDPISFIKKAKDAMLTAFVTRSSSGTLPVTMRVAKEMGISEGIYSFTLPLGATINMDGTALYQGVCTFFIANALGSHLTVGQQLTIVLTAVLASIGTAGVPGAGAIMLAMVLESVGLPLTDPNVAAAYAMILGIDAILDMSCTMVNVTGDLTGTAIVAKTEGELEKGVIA
T1 sequence (O59010 whole entry R397C): as the sequence (O59010 whole entry G396S/R397C) above, with S396G counted along it

As to `N[C@@H](CO)C(=O)O` [L-serine], the EC50 at GltPh-R397C was 4.5 ± 0.9 µM; on GltPh-G396S/R397C it was 15 ± 2 µM. The “Fold lower affinity for GltPh-R397C compared with L-aspartate for wild-type GltPh” value on GltPh-R397C (serine at GltPh-R397C vs L-aspartate at wild-type GltPh) was found to be 100 fold.
In the case of `N[C@@H](CCC(=O)Nc1ccc([N+](=O)[O-])cc1)C(=O)O` [GPNA, glutamyl-p-nitroanilide], the “IC50 for inhibition of L-[3H]serine transport” value was “poorly inhibited” on GltPh-R397C (GltPh-R397C, 1 µM L-[3H]serine) and “poor inhibitor” on GltPh-G396S/R397C (GltPh-G396S/R397C, 1 µM L-[3H]serine).
With `NC(=O)CC[C@H](N)C(=O)O` [L-glutamine], the “Transport of radiolabelled substrate into proteoliposomes (in words)” value is reported as “not a substrate” at GltPh-R397C (GltPh-R397C, listed as L-Glutamine); “not transported at levels above background” at GltPh-R397C (GltPh-R397C, listed as L-[^3H]glutamine); “does not effectively transport” on GltPh-G396S/R397C (GltPh-G396S/R397C, 100 nM L-[3H]aspartate, 1 µM L-[3H]glutamine, Na+ gradient, pH 7.5). Further, on GltPh-R397C (GltPh-R397C, 10 µM L-[3H]serine, 100-fold excess unlabelled amino acid), the “Reduction of L-[3H]serine transport by unlabelled competitor” value is “able to bind and inhibit”.
For the compound `N[C@@H](CS)C(=O)O` [L-cysteine], at GltPh-G396S/R397C (GltPh-R397C/G396S, 10 µM L-[3H]serine, 100-fold excess unlabelled amino acid), the “Reduction of L-[3H]serine transport by unlabelled competitor (in words)” value is “to a similar extent”.

The record behind these values is paper PMC5750217 (Nature Communications, 2018).
